# Source: PubChem BioAssay AID2060889 (Molecular Pharmacology Branch, DTP, NCI, 2025)
# Test system: LG0567-F671-PDC complex spheroids viability
# Assay: Anticancer human tumor LG0567-F671-PDC patient-derived lung adenocarcinoma cell line growth inhibition [RAS]
# Conditions: for viability, T/C: stronger effect = lower value
# Excerpt: RAS pathway inhibitors in Combinations in Complex Spheroids
# A high-throughput screen of multi-cell type tumor spheroids was designed to identify active combinations of RAS pathway inhibitors and targeted small molecules. Complex spheroids include a stromal component modeled by human endothelial cells (HUVEC) and fibroblasts modeled by human mesenchymal stem cells (MSCs). The concentration ranges selected for each drug and investigational agent were based upon clinically achievable concentrations if the clinical Cmax of the agent was known.
# Compounds. The drugs and investigational agents: abemaciclib (NSC768073), cobimetinib (NSC768068), divarasib (GDC6063, NSC841802), docetaxel (NSC628503), GDC-1971 (RLY-1971, NSC841576), gemcitabine (NSC613327), inavolisib (NSC800729), ipatasertib (NSC767898), KB-0742 (NSC834161), MRTX-1133 (NSC836407), osimertinib (NSC779217), RMC-4630 (NSC839698), RMC-6236 (NSC851965), RMC-6291 (NSC852671), Ro-3306 (NSC812927), sapanisertib (NSC764658), SN-38 (NSC673596), staurosporine (NSC755774), SY5609 (NSC837396), and tovorafenib (DAY101, NSC766906), were obtained from the National Cancer Institute (NCI) Developmental Therapeutics Program Chemical Repository. The FDA-approved anticancer drug set is available from the NCI Developmental Therapeutics Program. […] The stock solutions were prepared in dimethyl sulfoxide (DMSO, Sigma-Aldrich, St. Louis, MO, cat. D2650) at 800-fold the tested concentration and stored at -70 degrees C prior to their use. All drugs and investigational agents were tested over a range starting from a high concentration at or near the clinical Cmax and decreasing in half-log increments. If the clinical Cmax for an agent had not been determined, the highest concentration tested was 10 microM.
# Cell Culture. All cells were maintained in an incubator at 37 degrees C and 5% CO2 with 95% humidity. The PDC lines were cultured according to standard operating procedures established by the NCI PDMR. All PDCs were thawed and cultured in Matrigel-coated flasks prepared with a working solution of 1X Ham's F-12 nutrient mix, without supplementation (Invitrogen, Waltham, MA, cat. 11765054), 100 U/mL penicillin-streptomycin (Invitrogen, cat. 15140122), and 2.5% Matrigel (Corning Inc., Corning, NY, cat. 354248) for the first three passages. The 362531-283-R-J2-PDC and 782815-120-R-J1-PDC lines were cultured in 6C/Colon 1B media, which includes advanced DMEM/F-12 (Thermo Fisher Scientific, cat. 12634028), 10 mM HEPES (Thermo Fisher Scientific, cat. 15630080), 1X GlutaMAX supplement (Thermo Fisher Scientific, cat. 35050061), 0.1 mg/mL primocin (InvivoGen, San Diego, CA, cat. ant-pm-2), 10% defined fetal bovine serum, heat inactivated (HyClone Laboratories Inc., Logan, UT, cat. SH30070.03HI), 50% L-WRN conditioned media (ATCC, cat. CRL-3276), 1.25 mM N-Acetyl-L-cysteine (Sigma-Aldrich, cat. A9165), 10 mM nicotinamide (Sigma-Aldrich, cat. N0636), 1X B-27 supplement (Thermo Fisher Scientific, cat. 17504044), 1X N-2 supplement (Thermo Fisher Scientific, cat. 17502048), 50 ng/mL human EGF (Thermo Fisher Scientific, cat. PHG0311), and 10 microM Y-27632 dihydrochloride (Tocris Bioscience, cat. 1254). The K12877-001-R-J1-PDC line was cultured in 6I media, which includes all 6C/Colon 1B media plus 10 ng/mL human FGF-10 (PeproTech, cat. 100-26), 1 ng/mL human FGF-2 (PeproTech, cat. 100-18B), 1 µM prostaglandin E2 (Tocris Bioscience, cat. 2296), […] hydrocortisone (Sigma-Aldrich, cat. H4001), and […] bovine insulin (Sigma-Aldrich, cat. I6634). The K86415-001-R-J1-PDC line was cultured in 6D media, which includes all 6C/Colon 1B media components minus the L-WRN conditioned media. The 485176-168-R4-J1-PDC was cultured in PANC media, which includes all 6C/Colon 1B media plus 100 ng/mL human FGF-10 (PeproTech, cat. 100-26), 500 nM SB-431542 (Selleckchem, cat. S1067), and 10 nM gastrin (Tocris Bioscience, cat. 3006). […]
# 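Further: spheroids exposed to compound for seven days before readout.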
# 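Wherever IC50 is given: luminescence signal used as a proxy for viable cells.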
structure (smiles),measurement,setting,value
CC1(O)CCCC1n1c(=O)c(C(F)F)cc2cnc(NC3CCN(S(C)(=O)=O)CC3)nc21 (centres undefined) + C=CC(=O)N1CCN(c2nc(OCC3CCCN3C)nc3c(F)c(-c4nc(N)cc(C)c4C(F)(F)F)c(Cl)cc23)C(C)C1,IC50,"curve of first compound, second compound 0.00316 µM",< 31.6 nM
same,IC50,"curve of first compound, second compound 0.01 µM",< 31.6 nM
same,IC50,"curve of first compound, second compound 0.0316 µM",< 31.6 nM
same,IC50,"curve of first compound, second compound 0.1 µM",< 31.6 nM
same,IC50,"curve of first compound, second compound 0.316 µM",< 31.6 nM
same,IC50,"curve of first compound, second compound 1 µM",< 31.6 nM
same,"viability, T/C","second compound 0.00316 µM, first compound 0.0316 µM",20.1%
same,"viability, T/C","second compound 0.00316 µM, first compound 0.1 µM",16.5%
same,"viability, T/C","second compound 0.00316 µM, first compound 0.316 µM",20.5%
same,"viability, T/C","second compound 0.00316 µM, first compound 1 µM",23.8%
same,"viability, T/C","second compound 0.00316 µM, first compound 3.16 µM",20.7%
same,"viability, T/C","second compound 0.00316 µM, first compound 10 µM",14%
same,"viability, T/C","second compound 0.01 µM, first compound 0.0316 µM",16.5%
same,"viability, T/C","second compound 0.01 µM, first compound 0.1 µM",15%
same,"viability, T/C","second compound 0.01 µM, first compound 0.316 µM",16.2%
same,"viability, T/C","second compound 0.01 µM, first compound 1 µM",19.1%
same,"viability, T/C","second compound 0.01 µM, first compound 3.16 µM",20.6%
same,"viability, T/C","second compound 0.01 µM, first compound 10 µM",15.1%
same,"viability, T/C","second compound 0.0316 µM, first compound 0.0316 µM",13.8%
same,"viability, T/C","second compound 0.0316 µM, first compound 0.1 µM",12.9%
same,"viability, T/C","second compound 0.0316 µM, first compound 0.316 µM",17.8%
same,"viability, T/C","second compound 0.0316 µM, first compound 1 µM",18.3%
same,"viability, T/C","second compound 0.0316 µM, first compound 3.16 µM",17.6%
same,"viability, T/C","second compound 0.0316 µM, first compound 10 µM",13.4%
same,"viability, T/C","second compound 0.1 µM, first compound 0.0316 µM",12.7%
same,"viability, T/C","second compound 0.1 µM, first compound 0.1 µM",13.8%
same,"viability, T/C","second compound 0.1 µM, first compound 0.316 µM",15%
same,"viability, T/C","second compound 0.1 µM, first compound 1 µM",17.8%
same,"viability, T/C","second compound 0.1 µM, first compound 3.16 µM",17.4%
same,"viability, T/C","second compound 0.1 µM, first compound 10 µM",13.3%
same,"viability, T/C","second compound 0.316 µM, first compound 0.0316 µM",14.5%
same,"viability, T/C","second compound 0.316 µM, first compound 0.1 µM",15%
same,"viability, T/C","second compound 0.316 µM, first compound 0.316 µM",16.6%
same,"viability, T/C","second compound 0.316 µM, first compound 1 µM",17.1%
same,"viability, T/C","second compound 0.316 µM, first compound 3.16 µM",15.8%
same,"viability, T/C","second compound 0.316 µM, first compound 10 µM",13.1%
same,"viability, T/C","second compound 1 µM, first compound 0.0316 µM",16.2%
same,"viability, T/C","second compound 1 µM, first compound 0.1 µM",15.3%
same,"viability, T/C","second compound 1 µM, first compound 0.316 µM",17.7%
same,"viability, T/C","second compound 1 µM, first compound 1 µM",19.8%
same,"viability, T/C","second compound 1 µM, first compound 3.16 µM",19.6%
same,"viability, T/C","second compound 1 µM, first compound 10 µM",12.4%
NC1c2ccccc2OC12CCN(c1cnc3c(N4CCCc5ncccc54)n[nH]c3n1)CC2 (centres undefined),"viability, T/C",compound 0.0316 µM,37.3% [middle of 4 runs]
same,"viability, T/C",compound 0.1 µM,26.9% [middle of 4 runs]
same,"viability, T/C",compound 0.316 µM,23.4% [middle of 4 runs]
same,"viability, T/C",compound 1 µM,23% [middle of 4 runs]
same,"viability, T/C",compound 3.16 µM,21.2% [middle of 4 runs]
same,"viability, T/C",compound 10 µM,20.4% [middle of 4 runs]
same,IC50,curve of compound,< 31.6 nM
